Laboratory results reported in patent publication US20040253243A1, “Aptamer therapeutics useful in ocular pharmacotherapy” (priority 2003, published 2004).
{PEG30K} = 30 kDa polyethylene glycol, attached through the amine; {PEG20K} = 20 kDa polyethylene glycol; [invdT] = inverted (3'-3') thymidine; {3T} = T cap; {NH2} = amine group; m = 2'-O-methyl; r = 2'-OH (RNA); f = 2'-fluoro

Assays:
[1] = Pharmacokinetics via subconjunctival administration; format: in vivo, mice; conditions: for AUC (0-t) / Cmax / MRT / TLAST / t1/2 / tmax / Vd: subconjunctival, 1 mg/eye bilaterally; for detection in the aqueous humor: after subconjunctival administration
Description: A pharmacokinetic study was performed to determine the pharmacokinetics of ARC81, ARC117 and ARC119, TGFβ2 aptamers having the sequences of SEQ ID NOs:4, 9 and 11, respectively), via subconjunctival administration in mice. These aptamers were formulated at a concentration of 10 mg/ml. Samples were collected at 0, 0.5, 1, 2, 6, 12, 24, 48 and 96 hours post-administration. FIGS. 21A, 21B and 21C show the aqueous humor and/or plasma concentration of each aptamer (in nM) through 50 hours post dose via subconjunctival administration.

[2] = test system: PDGF AB and BB; test: PDGF binding (Kd); parameters: species or system human; conditions: read-out: Kd, PDGF AB and BB
Sequence of PDGF AB and BB (P01127 82-190 limits assumed): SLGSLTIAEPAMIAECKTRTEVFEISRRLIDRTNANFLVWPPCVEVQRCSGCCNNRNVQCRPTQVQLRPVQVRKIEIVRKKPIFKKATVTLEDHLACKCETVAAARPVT

Row | Substance | AUC (0-t) ([1]; Aq Humour) [nM·h] | Cmax ([1]; Aq Humour) [nM] | MRT ([1]; Aq Humour) [h] | TLAST ([1]; Aq Humour) [h] | t1/2 ([1]; Aq Humour) [h] | tmax ([1]; Aq Humour) [h] | AUC (0-t) ([1]; PLASMA) | Cmax ([1]; PLASMA) [nM] | MRT ([1]; PLASMA) [h] | TLAST ([1]; PLASMA) [h] | Vd ([1]; PLASMA) [mL] | t1/2 ([1]; PLASMA) [h] | tmax ([1]; PLASMA) [h] | detection in the aqueous humor [1] | Kd [2] [nM]
1 | 5′-[PEG20K]-NH2-mGmGmGmGfUfUAfUfUmAfCmAmGmAmGfUfCfUGfUAfUAmGfCfUmGfUmAfCfCfC-3T-3′ (GGGGUUAUUACAGAGUCUGUAUAGCUGUACCC; sugars from the 5' end mmmmffrffmfmmmmfffrfrfrmffmfmfff, 5' {PEG20K}-{NH2}, 3' {3T}, backbone not given here; PEG attached through 5' amine linker) [ARC117] | 87.6 | 22.9 | 3.62 | 24 | 4.33 | 1 | 1,122.1 nM · h | 145 | 9.22 | 48 | 1760 | 7.40 | 6 | detected in the aqueous humor | –
2 | 5′-TdAdCTdCdAdGdGdGdCdAdCTdGdCdAdAdGdCdAdATTdGTdGdGTdCdCdCdAdATdGdGdGdCTdGdAdGTdA-3T-3′ (TACTCAGGGCACTGCAAGCAATTGTGGTCCCAATGGGCTGAGTA; 3' [invdT], sugars by position and backbone not given here; further chemistry not fully specified) [ARC125] | – | – | – | – | – | – | – | – | – | – | – | – | – | – | 0.1
3 | 5′-[PEG30K]-NH2-mGmGmGmGfUfUAfUfUmAfCmAmGmAmGfUfCfUGfUAfUAmGfCfUmGfUmAfCfCfC-3T-3′ (GGGGUUAUUACAGAGUCUGUAUAGCUGUACCC; sugars from the 5' end mmmmffrffmfmmmmfffrfrfrmffmfmfff, 5' {PEG30K}-{NH2}, 3' {3T}, backbone not given here) [ARC119] | 133.2 | 28.4 | 12.80 | 48 | 17.52 | 0.5 | 13,380.5 nM · h | 721 | 17.28 | 48 | 137 | 6.94 | 12 | detected in the aqueous humor | –
4 | 5′-dCdAdCdAdGdGdCTdAdCdGdGdCdAdCdGTdAdGdAdGdCdATdCdAdCdCdATdGdATdCdCTdGTdG-3T-3′ (CACAGGCTACGGCACGTAGAGCATCACCATGATCCTGTG; 3' [invdT], sugars by position and backbone not given here; further chemistry not fully specified) [ARC124] | – | – | – | – | – | – | – | – | – | – | – | – | – | – | 0.1
5 | 5′-TdGdGdGdAdGdGdGdCdGdCdGTTdCTTdCdGTdGdGTTdAdCTTTTdAdGTdCdCdCdG-3T-3′ (TGGGAGGGCGCGTTCTTCGTGGTTACTTTTAGTCCCG; 3' [invdT], sugars by position and backbone not given here; further chemistry not fully specified) [ARC123] | – | – | – | – | – | – | – | – | – | – | – | – | – | – | 0.1
